Publication PMC13308190, “Endothelial progenitor cell susceptibility to DNA damaging and DDR-modulating compounds determines endothelial differentiation accuracy” (Stem Cell Research & Therapy, 2026)

Experiments:
Test in all cases: Western blot protein expression (densitometry)
Type in all cases: cell-based, mouse
[1] = tested on: EC d4 (endothelial progenitor cells); settings: EC d4 48 h; for H3ac protein / H4ac protein / aTubac (acetylated α-Tubulin) protein: Fig 1D; for CHK1 protein / RAD51 protein / gH2AX protein / p-CHK2 protein / p-KAP1 protein / p-RPA32 protein / p-p53 protein: Fig 5D; for AMPKa protein / GSK3b protein / p-p70SK protein: Fig 6E
Experimental: (§1) Total protein cell extracts were obtained upon sonication in RIPA buffer (EpiShearTM Probe sonicator, Active Motif [La Hulpe, Belgium]). Protein concentrations were determined using the DC Protein Assay (BioRad [Munich, Germany]). Extracts were supplemented with Roti®-Load buffer (Carl Roth GmbH [Karlsruhe, Germany]) followed by heating (95 °C for 5 min). 20 µg of protein was separated by SDS-PAGE and transferred onto nitrocellulose membrane. After blocking (5% non-fat milk in TBS/0.1% Tween 20 or 5% BSA in TBS/0.1% Tween 20) (1 h, RT) membrane was incubated with primary antibodies (1:500–5000; overnight, 4 °C). After washing with TBS/0.1% Tween 20, peroxidase-conjugated secondary antibody (1:2000) was added (2 h, RT) and bands were visualized using ChemiDoxTM Touch imaging system (BioRad, Munich, Germany).

[2] = tested on: EC d6 (endothelial-like cells); settings: EC d6 24 h; for H3ac protein / H4ac protein / aTubac (acetylated α-Tubulin) protein: Fig 1D; for CHK1 protein / RAD51 protein / gH2AX protein / p-CHK2 protein / p-KAP1 protein / p-RPA32 protein / p-p53 protein: Fig 5D; for AMPKa protein / GSK3b protein / p-p70SK protein: Fig 6E
Experimental: as §1

mESC = mESC 24 h; for H3ac protein / H4ac protein / aTubac (acetylated α-Tubulin) protein: Fig 1D; for AMPKa protein / GSK3b protein / p-p70SK protein: Fig 6E
Experimental: as §1

[3] = concentration 1 (Dox 1/B02 1/EST 1)
[4] = concentration 2 (Dox 2/B02 2/EST 2)
[5] = Fig 5D, concentration 1 (Dox 1/B02 1/EST 1)
[6] = Fig 5D, concentration 2 (Dox 2/B02 2/EST 2)

Nc1ccccc1NC(=O)c1ccc(CNC(=O)OCc2cccnc2)cc1 [EST, entinostat]
H3ac protein [1]: 4.6 Fold of mESC
H4ac protein [1]: 1853.2 Fold of mESC
aTubac (acetylated α-Tubulin) protein [1]: 0.9 Fold of mESC
CHK1 protein [1, 3]: 0.7 Fold of mESC
RAD51 protein [1, 3]: 1.0 Fold of mESC
gH2AX protein [1, 3]: 9.1 Fold of mESC
p-CHK2 protein [1, 3]: 0.6 Fold of mESC
p-KAP1 protein [1, 3]: 0.0 Fold of mESC
p-RPA32 protein [1, 3]: 0.8 Fold of mESC
p-p53 protein [1, 3]: 0.4 Fold of mESC
CHK1 protein [1, 4]: 1.0 Fold of mESC
RAD51 protein [1, 4]: 0.9 Fold of mESC
gH2AX protein [1, 4]: 8.9 Fold of mESC
p-CHK2 protein [1, 4]: 0.9 Fold of mESC
p-KAP1 protein [1, 4]: 0.0 Fold of mESC
p-RPA32 protein [1, 4]: 0.9 Fold of mESC
p-p53 protein [1, 4]: 0.5 Fold of mESC
AMPKa protein [1]: 0.5 Fold of mESC
GSK3b protein [1]: 2.3 Fold of mESC
p-p70SK protein [1]: 1.6 Fold of mESC
H3ac protein [2]: 7.8 Fold of mESC
H4ac protein [2]: 4083.7 Fold of mESC
aTubac (acetylated α-Tubulin) protein [2]: 1.0 Fold of mESC
CHK1 protein [2, 3]: 0.6 Fold of mESC
RAD51 protein [2, 3]: 0.6 Fold of mESC
gH2AX protein [2, 3]: 1.3 Fold of mESC
p-CHK2 protein [2, 3]: 0.5 Fold of mESC
p-KAP1 protein [2, 3]: 0.0 Fold of mESC
p-RPA32 protein [2, 3]: < 0.1 Fold of mESC
p-p53 protein [2, 3]: 0.3 Fold of mESC
CHK1 protein [2, 4]: 0.2 Fold of mESC
RAD51 protein [2, 4]: 0.1 Fold of mESC
gH2AX protein [2, 4]: 0.1 Fold of mESC
p-CHK2 protein [2, 4]: 0.3 Fold of mESC
p-KAP1 protein [2, 4]: 0.0 Fold of mESC
p-RPA32 protein [2, 4]: < 0.1 Fold of mESC
p-p53 protein [2, 4]: 0.3 Fold of mESC
AMPKa protein [2]: 0.7 Fold of mESC
GSK3b protein [2]: 1.7 Fold of mESC
p-p70SK protein [2]: 0.7 Fold of mESC
H3ac protein (mESC): 16.6 Fold of mESC
H4ac protein (mESC): 7426.8 Fold of mESC
aTubac (acetylated α-Tubulin) protein (mESC): 1.0 Fold of mESC
CHK1 protein (mESC; Fig 4H, Eto, Dox 1, B02, EST): 1.0 Fold of mESC
p-ATR protein (mESC; Fig 4H, Eto, Dox 1, B02, EST): 2.9 Fold of mESC
p-CHK1 protein (mESC; Fig 4H, Eto, Dox 1, B02, EST): 0.1 Fold of mESC
p-RPA32 protein (mESC; Fig 4H, Eto, Dox 1, B02, EST): 1.3 Fold of mESC
p-p53 protein (mESC; Fig 4H, Eto, Dox 1, B02, EST): 0.9 Fold of mESC
CHK1 protein (mESC; [5]): 0.8 Fold of mESC
RAD51 protein (mESC; [5]): 1.4 Fold of mESC
gH2AX protein (mESC; [5]): 7.7 Fold of mESC
p-CHK2 protein (mESC; [5]): 1.0 Fold of mESC
p-KAP1 protein (mESC; [5]): 2.9 Fold of mESC
p-RPA32 protein (mESC; [5]): 0.7 Fold of mESC
p-p53 protein (mESC; [5]): 0.9 Fold of mESC
CHK1 protein (mESC; [6]): 0.7 Fold of mESC
RAD51 protein (mESC; [6]): 1.4 Fold of mESC
gH2AX protein (mESC; [6]): 10.1 Fold of mESC
p-CHK2 protein (mESC; [6]): 1.0 Fold of mESC
p-KAP1 protein (mESC; [6]): 8.2 Fold of mESC
p-RPA32 protein (mESC; [6]): 0.7 Fold of mESC
p-p53 protein (mESC; [6]): 0.8 Fold of mESC
AMPKa protein (mESC): 0.5 Fold of mESC
GSK3b protein (mESC): 1.2 Fold of mESC
p-p70SK protein (mESC): 0.8 Fold of mESC

O=c1c2ccccc2nc(/C=C/c2cccnc2)n1Cc1ccccc1 [B02]
H3ac protein [1]: 0.0 Fold of mESC
H4ac protein [1]: 0.0 Fold of mESC
aTubac (acetylated α-Tubulin) protein [1]: 0.6 Fold of mESC
CHK1 protein [1, 3]: 0.4 Fold of mESC
RAD51 protein [1, 3]: 0.7 Fold of mESC
gH2AX protein [1, 3]: 1.8 Fold of mESC
p-CHK2 protein [1, 3]: 0.2 Fold of mESC
p-KAP1 protein [1, 3]: 0.0 Fold of mESC
p-RPA32 protein [1, 3]: 0.3 Fold of mESC
p-p53 protein [1, 3]: 0.6 Fold of mESC
CHK1 protein [1, 4]: 0.2 Fold of mESC
RAD51 protein [1, 4]: 0.3 Fold of mESC
gH2AX protein [1, 4]: 0.0 Fold of mESC
p-CHK2 protein [1, 4]: < 0.1 Fold of mESC
p-KAP1 protein [1, 4]: 0.0 Fold of mESC
p-RPA32 protein [1, 4]: 0.4 Fold of mESC
p-p53 protein [1, 4]: 0.3 Fold of mESC
AMPKa protein [1]: 0.1 Fold of mESC
GSK3b protein [1]: 1.9 Fold of mESC
p-p70SK protein [1]: 1.4 Fold of mESC
H3ac protein [2]: 0.1 Fold of mESC
H4ac protein [2]: 0.0 Fold of mESC
aTubac (acetylated α-Tubulin) protein [2]: 0.3 Fold of mESC
CHK1 protein [2, 3]: 0.7 Fold of mESC
RAD51 protein [2, 3]: 0.7 Fold of mESC
gH2AX protein [2, 3]: 1.2 Fold of mESC
p-CHK2 protein [2, 3]: 0.1 Fold of mESC
p-KAP1 protein [2, 3]: 0.0 Fold of mESC
p-RPA32 protein [2, 3]: 0.1 Fold of mESC
p-p53 protein [2, 3]: 0.4 Fold of mESC
CHK1 protein [2, 4]: 0.1 Fold of mESC
RAD51 protein [2, 4]: < 0.1 Fold of mESC
gH2AX protein [2, 4]: 0.1 Fold of mESC
p-CHK2 protein [2, 4]: 0.0 Fold of mESC
p-KAP1 protein [2, 4]: 0.0 Fold of mESC
p-RPA32 protein [2, 4]: < 0.1 Fold of mESC
p-p53 protein [2, 4]: 0.2 Fold of mESC
AMPKa protein [2]: 0.1 Fold of mESC
GSK3b protein [2]: 1.8 Fold of mESC
p-p70SK protein [2]: 1.1 Fold of mESC
H3ac protein (mESC): 1.8 Fold of mESC
H4ac protein (mESC): 232.9 Fold of mESC
aTubac (acetylated α-Tubulin) protein (mESC): 0.5 Fold of mESC
CHK1 protein (mESC; Fig 4H, Eto, Dox 1, B02, EST): 1.4 Fold of mESC
p-ATR protein (mESC; Fig 4H, Eto, Dox 1, B02, EST): 2.7 Fold of mESC
p-CHK1 protein (mESC; Fig 4H, Eto, Dox 1, B02, EST): 0.8 Fold of mESC
p-RPA32 protein (mESC; Fig 4H, Eto, Dox 1, B02, EST): 2.0 Fold of mESC
p-p53 protein (mESC; Fig 4H, Eto, Dox 1, B02, EST): 1.2 Fold of mESC
CHK1 protein (mESC; [5]): 0.8 Fold of mESC
RAD51 protein (mESC; [5]): 1.9 Fold of mESC
gH2AX protein (mESC; [5]): < 0.1 Fold of mESC
p-CHK2 protein (mESC; [5]): 0.9 Fold of mESC
p-KAP1 protein (mESC; [5]): 1.30 Fold of mESC
p-RPA32 protein (mESC; [5]): 0.8 Fold of mESC
p-p53 protein (mESC; [5]): 0.9 Fold of mESC
CHK1 protein (mESC; [6]): 1.0 Fold of mESC
RAD51 protein (mESC; [6]): 2.3 Fold of mESC
gH2AX protein (mESC; [6]): 0.5 Fold of mESC
p-CHK2 protein (mESC; [6]): 1.1 Fold of mESC
p-KAP1 protein (mESC; [6]): 1.26 Fold of mESC
p-RPA32 protein (mESC; [6]): 1.3 Fold of mESC
p-p53 protein (mESC; [6]): 1.2 Fold of mESC
AMPKa protein (mESC): 0.2 Fold of mESC
GSK3b protein (mESC): 1.3 Fold of mESC
p-p70SK protein (mESC): 1.2 Fold of mESC
